In PubChem BioAssay AID1963449 (Molecular Pharmacology Branch, DTP, NCI, 2024):
Where “and” joins values, the source holds several entries; their conditions need not be identical. Identical values can stand only once.

Tested on: 596521-263-R-J1-PDC complex spheroid growth
Experiment: Anticancer human tumor 596521-263-R-J1-PDC patient-derived soft tissue sarcoma cell line growth inhibition [Asc]
Settings: for viability, T/C: stronger effect = lower value
Procedure, shortened: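 Tumor cells were grown as complex spheroids with human endothelial cells (HUVEC) and human mesenchymal stem cells as stroma. Agents were tested alone and in combination, in half-log steps down from the clinical Cmax, or from 10 microM where Cmax was unknown.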
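Further: spheroids exposed to compounds for 7 days.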

Compound: C=CC(=O)N1CCN(c2nc(=O)n(-c3c(C)ccnc3C(C)C)c3nc(-c4c(O)cccc4F)c(F)cc23)C(C)C1 (stereo unspecified) + Cc1c(S(C)(=O)=O)c(-c2cc(F)cc(N3CCN(c4ccc(NS(=O)(=O)c5ccc(NC(CCN6CCC(C(=O)OCCCP(=O)(O)O)CC6)CSc6ccccc6)c(S(=O)(=O)C(F)(F)F)c5)cc4)CC3)c2)c(-c2ccc(Cl)cc2)n1C(C)C
- IC50 (curve of first compound, second compound 0.0316 µM): > 10000 nM
- IC50 (curve of first compound, second compound 0.1 µM): > 10000 nM
- IC50 (curve of first compound, second compound 0.316 µM): > 10000 nM
- IC50 (curve of first compound, second compound 1 µM): 6360 nM
- IC50 (curve of first compound, second compound 3.16 µM): 2980 nM
- IC50 (curve of first compound, second compound 10 µM): 1350 nM
- viability, T/C (second compound 0.0316 µM, first compound 0.0316 µM): 83.2%
- viability, T/C (second compound 0.0316 µM, first compound 0.1 µM): 84.6%
- viability, T/C (second compound 0.0316 µM, first compound 0.316 µM): 95%
- viability, T/C (second compound 0.0316 µM, first compound 1 µM): 98.9%
- viability, T/C (second compound 0.0316 µM, first compound 3.16 µM): 94.9%
- viability, T/C (second compound 0.0316 µM, first compound 10 µM): 65.8%
- viability, T/C (second compound 0.1 µM, first compound 0.0316 µM): 87.3%
- viability, T/C (second compound 0.1 µM, first compound 0.1 µM): 93.9%
- viability, T/C (second compound 0.1 µM, first compound 0.316 µM): 93.6%
- viability, T/C (second compound 0.1 µM, first compound 1 µM): 107%
- viability, T/C (second compound 0.1 µM, first compound 3.16 µM): 95.8%
- viability, T/C (second compound 0.1 µM, first compound 10 µM): 63%
- viability, T/C (second compound 0.316 µM, first compound 0.0316 µM): 83.7%
- viability, T/C (second compound 0.316 µM, first compound 0.1 µM): 82.5%
- viability, T/C (second compound 0.316 µM, first compound 0.316 µM): 80.1%
- viability, T/C (second compound 0.316 µM, first compound 1 µM): 99.9%
- viability, T/C (second compound 0.316 µM, first compound 3.16 µM): 87.1%
- viability, T/C (second compound 0.316 µM, first compound 10 µM): 59.9%
- viability, T/C (second compound 1 µM, first compound 0.0316 µM): 82.3%
- viability, T/C (second compound 1 µM, first compound 0.1 µM): 75.9%
- viability, T/C (second compound 1 µM, first compound 0.316 µM): 81%
- viability, T/C (second compound 1 µM, first compound 1 µM): 73.5%
- viability, T/C (second compound 1 µM, first compound 3.16 µM): 70.5%
- viability, T/C (second compound 1 µM, first compound 10 µM): 37.1%
- viability, T/C (second compound 3.16 µM, first compound 0.0316 µM): 66.6%
- viability, T/C (second compound 3.16 µM, first compound 0.1 µM): 63%
- viability, T/C (second compound 3.16 µM, first compound 0.316 µM): 62.6%
- viability, T/C (second compound 3.16 µM, first compound 1 µM): 63.4%
- viability, T/C (second compound 3.16 µM, first compound 3.16 µM): 49.3%
- viability, T/C (second compound 3.16 µM, first compound 10 µM): 36%
- viability, T/C (second compound 10 µM, first compound 0.0316 µM): 55.9%
- viability, T/C (second compound 10 µM, first compound 0.1 µM): 53%
- viability, T/C (second compound 10 µM, first compound 0.316 µM): 60.1%
- viability, T/C (second compound 10 µM, first compound 1 µM): 52.4%
- viability, T/C (second compound 10 µM, first compound 3.16 µM): 40.8%
- viability, T/C (second compound 10 µM, first compound 10 µM): 30.6%

Compound: O=C(c1cc(Cc2n[nH]c(=O)c3ccccc23)ccc1F)N1CCN(C(=O)C2CC2)CC1
- viability, T/C (compound 0.0316 µM): 102% and 103% and 85.9%
- viability, T/C (compound 0.1 µM): 101% (2×) and 93.1%
- viability, T/C (compound 0.316 µM): 94.2% and 92.7% and 111%
- viability, T/C (compound 1 µM): 90.9% and 103% and 93.6%
- viability, T/C (compound 3.16 µM): 89.6% and 92.4% and 71.7%
- viability, T/C (compound 10 µM): 59.9% and 61.9% and 50.4%
- IC50 (curve of compound): > 10000 nM

Compound: COc1c(OCCCN2CCOCC2)ccc2c3n(c(=NC(=O)c4cnc(N)nc4)nc12)CCN3
- viability, T/C (compound 0.00316 µM): 98.3% and 95.9%
- viability, T/C (compound 0.01 µM): 88% and 87.8%
- viability, T/C (compound 0.0316 µM): 71.1% and 82.2%
- viability, T/C (compound 0.1 µM): 68% and 61.7%
- viability, T/C (compound 0.316 µM): 44.1% and 40%
- viability, T/C (compound 1 µM): 31.9% and 28.1%
- IC50 (curve of compound): 254 nM and 188 nM
